Assay results as given in patent US12227501B2, “3-amino-2-[2-(acylamino)pyridin-4-yl]-1,5,6,7-tetrahydro-4h-pyrrolo[3,2-c]pyridin-4-one as CSNK1 inhibitors” (Bayer Aktiengesellschaft, priority 2019, dated 2025).
Several values for one entry are separate records, joined by “and”; a condition that tells them apart may be missing. Identical values can stand only once. Like-named read-outs stand apart in the source and are kept apart here.

What was measured:
Format in all cases: biochemical
human CSNK1D = human CSNK1D (Homo sapiens (Human), UniProt P48730); test: CSNK1D Assay (ADP-Glo, 1 μM ATP); conditions: read-out: CSNK1D IC50 [mol/l] (median)
Procedure, shortened: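 Activity is read as ADP produced, by ADP-Glo luminescence after 1 h steps at 22 °C. The reaction uses 1 μM ATP, a biotinylated peptide and insect-cell-expressed GST–CSNK1D (about 0.5 ng/μL) in pH 7.5 HEPES buffer, with 15 min compound–enzyme preincubation.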

human CSNK1A1 [1] = target: T1, human CSNK1A1 (Homo sapiens (Human), UniProt P48729); test: CSNK1A1 High ATP Assay (ADP-Glo, 1 mM ATP); conditions: read-out: CSNK1A1 high ATP assay IC50 [mol/l] (median)
Procedure, shortened: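 Kinase activity taken as ADP generated, quantified by ADP-Glo luminescence after 1 h ATP depletion and 1 h detection at 22 °C. Enzyme is GST–full-length human CSNK1A1 (insect cell-expressed), pre-bound to compound for 15 min, with phosphopeptide substrate and 1 mM ATP.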

human CSNK1A1 [2] = target: T1, human CSNK1A1; test: CSNK1A1 Assay 2 (ADP-Glo, 1 μM ATP); conditions: substrate biotin-Ahx-KRRRAL-pS-VASLPGL, read-out: CSNK1A1 Assay 2 IC50 [mol/l] (median)
Procedure, shortened: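 Full-length human CSNK1A1 as an N-terminal GST fusion (baculovirus/insect cells) with biotinylated peptide substrate biotin-Ahx-KRRRAL-pS-VASLPGL and 1 μM ATP, in HEPES pH 7.5 buffer. Compounds were pre-incubated with enzyme (~0.0375 ng/μL) for 15 min at 22 °C. Generated ADP was read by ADP-Glo luminescence as the activity measure.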

[3] = target: wild-type Epidermal Growth Factor Receptor (EGFR) (Homo sapiens (Human), UniProt P00533); test: WT-EGFR Kinase Assay (TR-FRET, 2 mM ATP)
[4] = read-out: EGFR Wildtyp- 2 mM ATP IC50 [mol/l] (median)
[5] = EGFR Wildtyp- 2 mM ATP IC50 [mol/l] (median)

human CSNK1D, sequence (P48730 whole entry): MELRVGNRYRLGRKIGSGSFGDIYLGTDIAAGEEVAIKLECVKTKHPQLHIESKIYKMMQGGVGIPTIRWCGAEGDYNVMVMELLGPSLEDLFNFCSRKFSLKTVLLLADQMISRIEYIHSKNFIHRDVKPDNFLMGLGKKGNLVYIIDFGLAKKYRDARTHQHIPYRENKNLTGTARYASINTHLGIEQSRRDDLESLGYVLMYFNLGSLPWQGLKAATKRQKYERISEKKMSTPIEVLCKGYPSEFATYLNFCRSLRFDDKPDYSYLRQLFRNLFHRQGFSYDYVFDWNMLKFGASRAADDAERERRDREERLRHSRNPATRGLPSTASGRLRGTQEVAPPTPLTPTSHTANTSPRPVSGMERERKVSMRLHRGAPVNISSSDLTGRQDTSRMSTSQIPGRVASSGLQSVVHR
T1 sequence (P48729 whole entry): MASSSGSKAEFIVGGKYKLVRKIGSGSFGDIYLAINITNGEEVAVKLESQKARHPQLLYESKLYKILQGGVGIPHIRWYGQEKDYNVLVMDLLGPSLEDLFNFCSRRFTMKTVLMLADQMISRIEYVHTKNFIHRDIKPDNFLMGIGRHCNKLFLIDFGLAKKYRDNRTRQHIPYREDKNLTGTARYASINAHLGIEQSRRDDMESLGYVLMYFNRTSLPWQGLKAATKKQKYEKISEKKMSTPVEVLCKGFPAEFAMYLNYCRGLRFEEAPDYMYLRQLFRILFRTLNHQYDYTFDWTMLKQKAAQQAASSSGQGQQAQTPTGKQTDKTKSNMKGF
wild-type Epidermal Growth Factor Receptor (EGFR), sequence (P00533 669-1210): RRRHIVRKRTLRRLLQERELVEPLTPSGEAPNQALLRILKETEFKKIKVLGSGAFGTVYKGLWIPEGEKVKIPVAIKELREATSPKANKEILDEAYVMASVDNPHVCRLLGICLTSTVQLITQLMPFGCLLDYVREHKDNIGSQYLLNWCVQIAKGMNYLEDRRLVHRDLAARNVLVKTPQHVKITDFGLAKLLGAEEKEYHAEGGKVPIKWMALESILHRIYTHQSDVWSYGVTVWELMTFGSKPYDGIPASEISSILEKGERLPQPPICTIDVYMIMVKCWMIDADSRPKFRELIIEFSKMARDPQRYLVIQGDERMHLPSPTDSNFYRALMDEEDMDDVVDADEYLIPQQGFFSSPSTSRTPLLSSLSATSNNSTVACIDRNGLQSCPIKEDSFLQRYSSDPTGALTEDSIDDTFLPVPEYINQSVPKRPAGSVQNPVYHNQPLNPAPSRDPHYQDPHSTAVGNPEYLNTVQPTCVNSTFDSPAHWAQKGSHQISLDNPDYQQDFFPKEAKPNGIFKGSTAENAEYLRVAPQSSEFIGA

## CC1Cc2[nH]c(-c3ccnc(NC(=O)C(CC(F)F)c4ccc(F)cc4)c3)c(Nc3ccccc3F)c2C(=O)N1C (single isomer, unassigned; (-)) [Example 104, (−)-4,4-difluoro-N-{4-[3-(2-fluoroanilino)-5,6-dimethyl-4-oxo-4,5,6,7-tetrahydro-1H-pyrrolo[3,2-c]pyridin-2-yl]pyridin-2-yl}-2-(4-fluorophenyl)butanamide]
Human CSNK1D
  IC50: 60.5 nM
Human CSNK1A1 [1]
  IC50: 4490 nM
Human CSNK1A1 [2]
  IC50: 67.9 nM
[3]; [4]
  IC50: > 20000 nM

## CC1Cc2[nH]c(-c3ccnc(NC(=O)C(CC(F)F)c4ccc(F)cc4)c3)c(Nc3ccccc3F)c2C(=O)N1C (single isomer, unassigned; (-)) [Example 106, (−)-(2RS)-4,4-difluoro-N-{4-[(6R*)-3-(2-fluoroanilino)-5,6-dimethyl-4-oxo-4,5,6,7-tetrahydro-1H-pyrrolo[3,2-c]pyridin-2-yl]pyridin-2-yl}-2-(4-fluorophenyl)butanamide]
Human CSNK1D
  IC50: 22.3 nM
Human CSNK1A1 [1]
  IC50: 56.2 nM
Human CSNK1A1 [2]
  IC50: 17.8 nM
[3]; [4]
  IC50: > 20000 nM

## CC1Cc2[nH]c(-c3ccnc(NC(=O)C(CC(F)F)c4ccc(F)cc4)c3)c(Nc3ccccc3F)c2C(=O)N1C (single isomer, unassigned; (-)) [Example 107, (−)-4,4-difluoro-N-{4-[3-(2-fluoroanilino)-5,6-dimethyl-4-oxo-4,5,6,7-tetrahydro-1H-pyrrolo[3,2-c]pyridin-2-yl]pyridin-2-yl}-2-(4-fluorophenyl)butanamide]
Human CSNK1D
  IC50: 59.2 nM
Human CSNK1A1 [1]
  IC50: 3160 nM
Human CSNK1A1 [2]
  IC50: 45.7 nM
[3]; [4]
  IC50: > 20000 nM

## CC1(C)Cc2[nH]c(-c3ccnc(NC(=O)C(CC(F)F)c4ccc(F)cc4)c3)c(Nc3cccc(F)c3Cl)c2C(=O)N1 (single isomer, unassigned; (-)) [Example 110, (−)-N-{4-[3-(2-chloro-3-fluoroanilino)-6,6-dimethyl-4-oxo-4,5,6,7-tetrahydro-1H-pyrrolo[3,2-c]pyridin-2-yl]pyridin-2-yl}-4,4-difluoro-2-(4-fluorophenyl)butanamide]
Human CSNK1D
  IC50: 249 nM
Human CSNK1A1 [1]
  IC50: > 20000 nM
Human CSNK1A1 [2]
  IC50: 262 nM
[3]; [5]
  IC50: 4130 nM

## CC1(C)Cc2[nH]c(-c3ccnc(NC(=O)C(CC(F)F)c4ccc(F)cc4)c3)c(Nc3cccc(F)c3)c2C(=O)N1 (single isomer, unassigned; enantiomer 1) [Example 120, 4,4-difluoro-N-{4-[3-(3-fluoroanilino)-6,6-dimethyl-4-oxo-4,5,6,7-tetrahydro-1H-pyrrolo[3,2-c]pyridin-2-yl]pyridin-2-yl}-2-(4-fluorophenyl)butanamide (Enantiomer 1)]
Human CSNK1D
  IC50: 11 nM
Human CSNK1A1 [1]
  IC50: 477 nM
Human CSNK1A1 [2]
  IC50: 9.64 nM
[3]; [5]
  IC50: > 20000 nM

## O=C1NC2(CCC2)Cc2[nH]c(-c3ccnc(NC(=O)C(CC(F)F)c4ccc(F)cc4)c3)c(Nc3cccc(F)c3Cl)c21 (single isomer, unassigned; enantiomer 1) [Example 124, (−)-N-{4-[3′-(2-chloro-3-fluoroanilino)-4′-oxo-1′,4′,5′,7′-tetrahydrospiro[cyclobutane-1,6′-pyrrolo[3,2-c]pyridin]-2′-yl]pyridin-2-yl}-4,4-difluoro-2-(4-fluorophenyl)butanamide (Enantiomer 1)]
Human CSNK1D
  IC50: 58.7 nM
Human CSNK1A1 [1]
  IC50: > 5710 nM
Human CSNK1A1 [2]
  IC50: 74.6 nM
[3]; [5]
  IC50: > 20000 nM

## CC1(C)Cc2[nH]c(-c3ccnc(NC(=O)C(CC(F)F)c4ccc(F)cc4)c3)c(Nc3cccc(F)n3)c2C(=O)N1 (single isomer, unassigned; enantiomer 1) [Example 129, 4,4-difluoro-2-(4-fluorophenyl)-N-(4-{3-[(6-fluoropyridin-2-yl)amino]-6,6-dimethyl-4-oxo-4,5,6,7-tetrahydro-1H-pyrrolo[3,2-c]pyridin-2-yl}pyridin-2-yl)butanamide (Enantiomer 1)]
Human CSNK1D
  IC50: 5.4 nM
Human CSNK1A1 [1]
  IC50: 6.37 nM
Human CSNK1A1 [2]
  IC50: 3.39 nM
[3]; [5]
  IC50: > 20000 nM

## Cc1ccccc1Nc1c(-c2ccnc(NC(=O)C(C)c3ccc(F)cc3)c2)[nH]c2c1C(=O)NC(C)(C)C2 (single isomer, unassigned; enantiomer 1) [Example 133, (−)-N-{4-[6,6-dimethyl-3-(2-methylanilino)-4-oxo-4,5,6,7-tetrahydro-1H-pyrrolo[3,2-c]pyridin-2-yl]pyridin-2-yl}-2-(4-fluorophenyl)propanamide (Enantiomer 1)]
Human CSNK1D
  IC50: 280 nM
Human CSNK1A1 [1]
  IC50: > 5710 nM
Human CSNK1A1 [2]
  IC50: 197 nM
[3]; [5]
  IC50: 405 nM

## Cc1ccccc1Nc1c(-c2ccnc(NC(=O)C(CC(F)F)c3ccc(F)cc3)c2)[nH]c2c1C(=O)NC(C)(C)C2 (single isomer, unassigned; enantiomer 1) [Example 136, N-{4-[6,6-dimethyl-3-(2-methylanilino)-4-oxo-4,5,6,7-tetrahydro-1H-pyrrolo[3,2-c]pyridin-2-yl]pyridin-2-yl}-4,4-difluoro-2-(4-fluorophenyl)butanamide (Enantiomer 1)]
Human CSNK1D
  IC50: 45.3 nM
Human CSNK1A1 [1]
  IC50: 45.6 nM
Human CSNK1A1 [2]
  IC50: 13.7 nM
[3]; [5]
  IC50: > 20000 nM

## CC1(C)Cc2[nH]c(-c3ccnc(NC(=O)C(CN)c4ccc(F)cc4)c3)c(Nc3ccccc3)c2C(=O)N1 (single isomer, unassigned; enantiomer 1) [Example 140, 3-amino-N-[4-(3-anilino-6,6-dimethyl-4-oxo-4,5,6,7-tetrahydro-1H-pyrrolo[3,2-c]pyridin-2-yl)pyridin-2-yl]-2-(4-fluorophenyl)propanamide (Enantiomer 1)]
Human CSNK1D
  IC50: 9.95 nM
Human CSNK1A1 [1]
  IC50: 56.9 nM
Human CSNK1A1 [2]
  IC50: 4.1 nM
[3]; [5]
  IC50: > 20000 nM

## Cc1ccccc1Nc1c(-c2ccnc(NC(=O)C(CC(F)F)c3ccc(F)cc3)c2)[nH]c2c1C(=O)NC1(CCC1)C2 (single isomer, unassigned; enantiomer 1) [Example 144, (−)-4,4-difluoro-2-(4-fluorophenyl)-N-{4-[3′-(2-methylanilino)-4′-oxo-1′,4′,5′,7′-tetrahydrospiro[cyclobutane-1,6′-pyrrolo[3,2-c]pyridin]-2′-yl]pyridin-2-yl}butanamide-(Enantiomer 1)]
Human CSNK1D
  IC50: 82 nM
Human CSNK1A1 [1]
  IC50: 5060 nM
Human CSNK1A1 [2]
  IC50: 80.7 nM
[3]; [5]
  IC50: > 20000 nM

## O=C1NC2(CC2)Cc2[nH]c(-c3ccnc(NC(=O)C(CC(F)F)c4ccc(F)cc4)c3)c(Nc3ccccc3)c21 (single isomer, unassigned; enantiomer 1) [Example 148, N-[4-(3′-anilino-4′-oxo-1′,4′,5′,7′-tetrahydrospiro[cyclopropane-1,6′-pyrrolo[3,2-c]pyridin]-2′-yl)pyridin-2-yl]-4,4-difluoro-2-(4-fluorophenyl)butanamide (Enantiomer 1)]
Human CSNK1D
  IC50: 8.31 nM
Human CSNK1A1 [1]
  IC50: 12.8 nM
Human CSNK1A1 [2]
  IC50: 8.82 nM
[3]; [5]
  IC50: 3400 nM

## CC(C(=O)Nc1cc(-c2[nH]c3c(c2Nc2ccccc2)C(=O)N(C)C2(CCC2)C3)ccn1)c1ccc(F)cc1 (single isomer, unassigned; enantiomer 1) [Example 158, (−)-N-[4-(3′-anilino-5′-methyl-4′-oxo-1′,4′,5′,7′-tetrahydrospiro[cyclobutane-1,6′-pyrrolo[3,2-c]pyridin]-2′-yl)pyridin-2-yl]-2-(4-fluorophenyl)propanamide (Enantiomer 1)]
Human CSNK1D
  IC50: 188 nM
Human CSNK1A1 [1]
  IC50: > 1630 nM and 5570 nM
Human CSNK1A1 [2]
  IC50: 239 nM and 263 nM and 52.5 nM and 67.7 nM
[3]; [5]
  IC50: > 20000 nM

## CC1(C)Cc2[nH]c(-c3ccnc(NC(=O)C(CC(F)F)c4ccc(F)cc4)c3)c(Nc3cccc(F)c3)c2C(=O)N1 (single isomer, unassigned; enantiomer 2) [Example 121, 4,4-difluoro-N-{4-[3-(3-fluoroanilino)-6,6-dimethyl-4-oxo-4,5,6,7-tetrahydro-1H-pyrrolo[3,2-c]pyridin-2-yl]pyridin-2-yl}-2-(4-fluorophenyl)butanamide (Enantiomer 2)]
Human CSNK1D
  IC50: 63.5 nM
Human CSNK1A1 [1]
  IC50: 10200 nM
Human CSNK1A1 [2]
  IC50: 70.1 nM
[3]; [4]
  IC50: > 20000 nM

## O=C1NC2(CCC2)Cc2[nH]c(-c3ccnc(NC(=O)C(CC(F)F)c4ccc(F)cc4)c3)c(Nc3cccc(F)c3Cl)c21 (single isomer, unassigned; enantiomer 2) [Example 125, (+)-N-{4-[3′-(2-chloro-3-fluoroanilino)-4′-oxo-1′,4′,5′,7′-tetrahydrospiro[cyclobutane-1,6′-pyrrolo[3,2-c]pyridin]-2′-yl]pyridin-2-yl}-4,4-difluoro-2-(4-fluorophenyl)butanamide (Enantiomer 2)]
Human CSNK1D
  IC50: 9.39 nM
Human CSNK1A1 [1]
  IC50: 12.1 nM
Human CSNK1A1 [2]
  IC50: 10.5 nM
[3]; [4]
  IC50: > 20000 nM

## CC1(C)Cc2[nH]c(-c3ccnc(NC(=O)C(CC(F)F)c4ccc(F)cc4)c3)c(Nc3cccc(F)n3)c2C(=O)N1 (single isomer, unassigned; enantiomer 2) [Example 130, 4,4-difluoro-2-(4-fluorophenyl)-N-(4-{3-[(6-fluoropyridin-2-yl)amino]-6,6-dimethyl-4-oxo-4,5,6,7-tetrahydro-1H-pyrrolo[3,2-c]pyridin-2-yl}pyridin-2-yl)butanamide (Enantiomer 2)]
Human CSNK1D
  IC50: 71.6 nM
Human CSNK1A1 [1]
  IC50: 1340 nM
Human CSNK1A1 [2]
  IC50: 26.7 nM
[3]; [4]
  IC50: > 20000 nM
